Source: the NIST ThermoML archive (doi:10.1021/je060137q)

Legend:
[1] = for mass density: 101 kPa, Liquid; for surface tension liquid-gas: Pendant drop shape
[2] = xn = mol fraction of the nth substance listed; conditions: for surface tension liquid-gas: Pendant drop shape; for mass density: 101 kPa, Liquid

CCOC(=O)OCC [diethyl carbonate]
[1]
Conditions	mass density [kg/m3]
298.15 K	969.12
313.15 K	952.15

Cc1ccc(C)c(C)c1 [1,2,4-trimethylbenzene] + CCOC(=O)OCC
[2]
Conditions	mass density [kg/m3]	surface tension liquid-gas [mN/m]
298.15 K, x2 = 0	871.64	29.29
298.15 K, x2 = 0.0501	875.81	–
298.15 K, x2 = 0.1005	880.1	28.85
298.15 K, x2 = 0.1497	884.28	–
298.15 K, x2 = 0.1994	888.62	28.41
298.15 K, x2 = 0.2518	893.23	–
298.15 K, x2 = 0.2998	897.55	27.98
298.15 K, x2 = 0.3499	902.17	–
298.15 K, x2 = 0.4001	–	27.58
298.15 K, x2 = 0.4004	906.89	–
298.15 K, x2 = 0.4496	911.54	–
298.15 K, x2 = 0.5	916.38	27.23
298.15 K, x2 = 0.5494	921.22	–
298.15 K, x2 = 0.5997	926.24	–
298.15 K, x2 = 0.6497	931.3	–
298.15 K, x2 = 0.6998	936.41	–
298.15 K, x2 = 0.7505	941.72	–
298.15 K, x2 = 0.8001	947	–
298.15 K, x2 = 0.8499	952.36	–
298.15 K, x2 = 0.9	957.82	–
298.15 K, x2 = 0.95	963.45	–
313.15 K, x2 = 0	859.5	27.67
313.15 K, x2 = 0.0508	863.46	–
313.15 K, x2 = 0.1	–	27.16
313.15 K, x2 = 0.1005	867.43	–
313.15 K, x2 = 0.1486	871.36	–
313.15 K, x2 = 0.2002	–	26.69
313.15 K, x2 = 0.2012	875.71	–
313.15 K, x2 = 0.2507	879.88	–
313.15 K, x2 = 0.3005	–	26.23
313.15 K, x2 = 0.3007	884.17	–
313.15 K, x2 = 0.352	888.61	–
313.15 K, x2 = 0.3997	–	25.81
313.15 K, x2 = 0.4006	892.94	–
313.15 K, x2 = 0.4499	897.37	–
313.15 K, x2 = 0.4981	901.79	–
313.15 K, x2 = 0.5001	–	25.49
313.15 K, x2 = 0.5498	906.6	–
313.15 K, x2 = 0.597	911.06	–
313.15 K, x2 = 0.6481	915.93	–
313.15 K, x2 = 0.699	920.93	–
313.15 K, x2 = 0.7499	925.98	–
313.15 K, x2 = 0.8002	931.06	–
313.15 K, x2 = 0.8473	935.87	–
313.15 K, x2 = 0.9001	941.45	–
313.15 K, x2 = 0.9499	946.74	–

Cc1cc(C)cc(C)c1 [1,3,5-trimethylbenzene] + CCOC(=O)OCC
[2]
Conditions	mass density [kg/m3]	surface tension liquid-gas [mN/m]
298.15 K, x2 = 0	861.04	28.09
298.15 K, x2 = 0.05	865.43	–
298.15 K, x2 = 0.1	869.94	27.71
298.15 K, x2 = 0.15	874.61	–
298.15 K, x2 = 0.1999	879.3	27.37
298.15 K, x2 = 0.2501	884.12	–
298.15 K, x2 = 0.2999	889.01	27.01
298.15 K, x2 = 0.3498	893.96	–
298.15 K, x2 = 0.3999	899.08	26.76
298.15 K, x2 = 0.4499	904.28	–
298.15 K, x2 = 0.5006	909.64	26.56
298.15 K, x2 = 0.5497	914.93	–
298.15 K, x2 = 0.6001	920.47	–
298.15 K, x2 = 0.6498	926.07	–
298.15 K, x2 = 0.7007	931.9	–
298.15 K, x2 = 0.7495	937.62	–
298.15 K, x2 = 0.8004	943.71	–
298.15 K, x2 = 0.849	949.64	–
298.15 K, x2 = 0.9001	956.06	–
298.15 K, x2 = 0.9501	962.49	–
313.15 K, x2 = 0	848.73	26.82
313.15 K, x2 = 0.0502	852.95	–
313.15 K, x2 = 0.0997	–	26.36
313.15 K, x2 = 0.1001	857.31	–
313.15 K, x2 = 0.1497	861.7	–
313.15 K, x2 = 0.1995	–	25.95
313.15 K, x2 = 0.201	866.26	–
313.15 K, x2 = 0.248	870.64	–
313.15 K, x2 = 0.2987	875.33	–
313.15 K, x2 = 0.2997	–	25.57
313.15 K, x2 = 0.3417	879.45	–
313.15 K, x2 = 0.4001	–	25.22
313.15 K, x2 = 0.4009	885.2	–
313.15 K, x2 = 0.4487	889.94	–
313.15 K, x2 = 0.5001	–	24.93
313.15 K, x2 = 0.5005	895.18	–
313.15 K, x2 = 0.5501	900.3	–
313.15 K, x2 = 0.5995	905.52	–
313.15 K, x2 = 0.651	911.05	–
313.15 K, x2 = 0.6995	916.4	–
313.15 K, x2 = 0.7495	921.97	–
313.15 K, x2 = 0.8004	927.84	–
313.15 K, x2 = 0.8501	933.7	–
313.15 K, x2 = 0.9001	939.69	–
313.15 K, x2 = 0.9501	945.76	–

COC(=O)OC [dimethyl carbonate] + Cc1ccc(C)c(C)c1
[2], x1 = 1
Conditions	mass density [kg/m3]
298.15 K	1062.97
313.15 K	1044.63

CCOC(=O)OCC [diethyl carbonate] + Cc1ccc(C)c(C)c1
[2], x1 = 1
Conditions	mass density [kg/m3]
298.15 K	969.12
313.15 K	952.15

COC(=O)OC [dimethyl carbonate]
[1]
Conditions	mass density [kg/m3]
298.15 K	1062.97
313.15 K	1044.63

Cc1ccc(C)c(C)c1 [1,2,4-trimethylbenzene]
[1]
Conditions	mass density [kg/m3]	surface tension liquid-gas [mN/m]
298.15 K	871.64	29.29
313.15 K	859.5	27.67

Cc1cc(C)cc(C)c1 [1,3,5-trimethylbenzene]
[1]
Conditions	mass density [kg/m3]	surface tension liquid-gas [mN/m]
298.15 K	861.04	28.09
313.15 K	848.73	26.82

COC(=O)OC [dimethyl carbonate] + Cc1cc(C)cc(C)c1
[2], x1 = 1
Conditions	mass density [kg/m3]
298.15 K	1062.97
313.15 K	1044.63

Cc1cc(C)cc(C)c1 [1,3,5-trimethylbenzene] + COC(=O)OC
[2]
Conditions	mass density [kg/m3]	surface tension liquid-gas [mN/m]
298.15 K, x2 = 0	861.04	28.09
298.15 K, x2 = 0.054	867.08	–
298.15 K, x2 = 0.1048	872.95	27.91
298.15 K, x2 = 0.1518	878.8	–
298.15 K, x2 = 0.1998	885.1	27.6
298.15 K, x2 = 0.2491	891.85	–
298.15 K, x2 = 0.3001	899.28	27.43
298.15 K, x2 = 0.3496	906.77	–
298.15 K, x2 = 0.3999	–	27.32
298.15 K, x2 = 0.4001	914.84	–
298.15 K, x2 = 0.4499	923.32	–
298.15 K, x2 = 0.4999	932.32	27.34
298.15 K, x2 = 0.5508	942.03	–
298.15 K, x2 = 0.5977	951.57	–
298.15 K, x2 = 0.6488	962.47	–
298.15 K, x2 = 0.7	974.17	–
298.15 K, x2 = 0.7514	986.83	–
298.15 K, x2 = 0.7999	999.6	–
298.15 K, x2 = 0.85	1013.67	–
298.15 K, x2 = 0.8999	1028.84	–
298.15 K, x2 = 0.9499	1045.18	–
313.15 K, x2 = 0	848.73	26.82
313.15 K, x2 = 0.0505	854.19	–
313.15 K, x2 = 0.1009	–	26.42
313.15 K, x2 = 0.1046	860.31	–
313.15 K, x2 = 0.15	865.69	–
313.15 K, x2 = 0.1994	–	26.04
313.15 K, x2 = 0.2007	872.13	–
313.15 K, x2 = 0.2489	878.45	–
313.15 K, x2 = 0.2985	885.42	–
313.15 K, x2 = 0.2996	–	25.8
313.15 K, x2 = 0.35	892.95	–
313.15 K, x2 = 0.3983	900.54	–
313.15 K, x2 = 0.4016	–	25.63
313.15 K, x2 = 0.4498	908.93	–
313.15 K, x2 = 0.5001	917.76	–
313.15 K, x2 = 0.5004	–	25.55
313.15 K, x2 = 0.5492	926.76	–
313.15 K, x2 = 0.5999	936.76	–
313.15 K, x2 = 0.6488	946.86	–
313.15 K, x2 = 0.6992	958.18	–
313.15 K, x2 = 0.7489	969.98	–
313.15 K, x2 = 0.7995	982.91	–
313.15 K, x2 = 0.8479	996.11	–
313.15 K, x2 = 0.8997	1011.33	–
313.15 K, x2 = 0.9501	1027.37	–

CCOC(=O)OCC [diethyl carbonate] + Cc1cc(C)cc(C)c1
[2], x1 = 1
Conditions	mass density [kg/m3]
298.15 K	969.12
313.15 K	952.15

Cc1ccc(C)c(C)c1 [1,2,4-trimethylbenzene] + COC(=O)OC
[2]
Conditions	mass density [kg/m3]	surface tension liquid-gas [mN/m]
298.15 K, x2 = 0	871.64	29.29
298.15 K, x2 = 0.0499	876.93	–
298.15 K, x2 = 0.0999	882.55	28.93
298.15 K, x2 = 0.15	888.53	–
298.15 K, x2 = 0.2	894.76	28.64
298.15 K, x2 = 0.2498	901.22	–
298.15 K, x2 = 0.2995	908.07	–
298.15 K, x2 = 0.3001	–	28.34
298.15 K, x2 = 0.3502	915.53	–
298.15 K, x2 = 0.4001	923.26	28.21
298.15 K, x2 = 0.45	931.35	–
298.15 K, x2 = 0.5	939.96	28.08
298.15 K, x2 = 0.55	949.04	–
298.15 K, x2 = 0.5998	958.57	–
298.15 K, x2 = 0.65	968.9	–
298.15 K, x2 = 0.6999	979.71	–
298.15 K, x2 = 0.7497	991.22	–
298.15 K, x2 = 0.7997	1003.68	–
298.15 K, x2 = 0.8501	1017.1	–
298.15 K, x2 = 0.8999	1031.25	–
298.15 K, x2 = 0.9498	1046.57	–
313.15 K, x2 = 0	859.5	27.67
313.15 K, x2 = 0.0505	864.72	–
313.15 K, x2 = 0.1008	–	27.23
313.15 K, x2 = 0.1012	870.23	–
313.15 K, x2 = 0.15	875.75	–
313.15 K, x2 = 0.1999	–	26.82
313.15 K, x2 = 0.2008	881.92	–
313.15 K, x2 = 0.2491	887.96	–
313.15 K, x2 = 0.2996	–	26.51
313.15 K, x2 = 0.3003	894.87	–
313.15 K, x2 = 0.3498	901.76	–
313.15 K, x2 = 0.3991	–	26.29
313.15 K, x2 = 0.401	909.43	–
313.15 K, x2 = 0.4509	917.26	–
313.15 K, x2 = 0.5	–	26.11
313.15 K, x2 = 0.5008	925.59	–
313.15 K, x2 = 0.5507	934.32	–
313.15 K, x2 = 0.5998	943.46	–
313.15 K, x2 = 0.65	953.33	–
313.15 K, x2 = 0.6995	963.85	–
313.15 K, x2 = 0.7505	975.23	–
313.15 K, x2 = 0.7994	986.99	–
313.15 K, x2 = 0.8502	1000	–
313.15 K, x2 = 0.8976	1013.08	–
313.15 K, x2 = 0.9504	1028.72	–
